Source: patent EP0206138A1, “Anthracycline compounds, a process for their preparation and their use as medicaments” (priority 1985, dated 1986)
In brackets after ≈: the same amount, converted by molar mass. Several values for one entry are separate records, joined by “and”; a condition that tells them apart may be missing. Equal values may be shown once. Read-outs that look alike come from different tables or passages of the source.

Experiments:
[1] = system: L1210 leukemia cells; experiment: Anti-tumor activity: L1210 leukemia transplanted intraperitoneally into CDF1 mice, life prolongation; type: in vivo; conditions: for percentage life prolongation (T/C%): saline control = 100; for intoxication: L1210-bearing CDF1 mice
Description: L1210 leukemia cells (1 x 10^5 per animal) were transplanted intraperitoneally into CDF1 mice. Immediately after the transplantation, 0.25 ml of a selected test compound in solution was administered intraperitoneally in accordance with the schedule shown below. The anti-tumor activities of the test compounds in terms of percentage life prolongation (T/C%) are listed in the same table, with the number of days of survival of control mice to which physiological saline had been administered being taken as 100 (day 0 means the day of L1210 transplantation).

[2] = system: P388 leukemia cells; experiment: Cytotoxicity on tissue culture: growth inhibition of cultured P388 leukemia cells; type: cell-based
From the text: (1) Cytotoxicity (on tissue culture)
The barminomycin compounds of the present invention were capable of inhibiting the growth of cultured P388 leukemia cells in very low concentrations. […] For further detail, see the following table.

[3] = system: Bacillus subtilis PCI 219; experiment: Antimicrobial activity, MIC by agar dilution method; type: cell-based; conditions: Bacillus subtilis PCI 219, agar dilution method
Description: (§1) The antimicrobial activities of barminomycin I and Ir of the present invention, and that of carminomycin III were determined by the agar dilution method.

[4] = system: S. aureus MS8710; experiment: as above; type: cell-based
Description: as §1

[5] = system: Klebsiella p eumoniae PCI 602; experiment: as above; type: cell-based; conditions: Klebsiella p eumoniae PCI 602, agar dilution method
Description: as §1

[6] = system: S. aureus MS9610; experiment: as above; type: cell-based
Description: as §1

[7] = system: S. aureus Smith; experiment: as above; type: cell-based
Description: as §1

[8] = system: Staphylococcus aureus FAD 209P; experiment: as above; type: cell-based
Description: as §1

[9] = system: Serratia marcescens; experiment: as above; type: cell-based
Description: as §1

[10] = system: Micrococcus Lysodeikticus IFO 3333; experiment: as above; type: cell-based; conditions: Micrococcus Lysodeikticus IFO 3333, agar dilution method
Description: as §1

[11] = system: Mycobacterium smegmatis 607; experiment: as above; type: cell-based; conditions: Mycobacterium smegmatis 607, agar dilution method
Description: as §1

[12] = system: E. coli NIHJ; experiment: as above; type: cell-based
Description: as §1

[13] = system: Proteus vulgaris OX19; experiment: as above; type: cell-based
Description: as §1

[14] = system: Pseudomonas aeruginosa A3; experiment: as above; type: cell-based
Description: as §1

[15] = system: E. coli K-12; experiment: as above; type: cell-based; conditions: E. coli K-12, agar dilution method
Description: as §1

[16] = system: E. coli BE1121; experiment: as above; type: cell-based
Description: as §1

[17] = system: E. coli BE1186; experiment: as above; type: cell-based
Description: as §1

[18] = 0.0078 µg/mouse/day intraperitoneally, 0 - 10 days (daily)
[19] = 0.0157 µg/mouse/day intraperitoneally, 0 - 10 days (daily)
[20] = 0.0625 µg/mouse/day intraperitoneally, 0 - 10 days (daily)
[21] = 0.125 µg/mouse/day intraperitoneally, 0 - 10 days (daily)
[22] = 0.25 µg/mouse/day intraperitoneally, 0 - 10 days (daily)
[23] = 1.25 µg/mouse/day intraperitoneally, 0 - 9 days (daily)
[24] = 2.5 µg/mouse/day intraperitoneally, 0 - 9 days (daily)
[25] = 5 µg/mouse/day intraperitoneally, 0 - 9 days (daily)
[26] = 10 µg/mouse/day intraperitoneally, 0 - 9 days (daily)
[27] = 20 µg/mouse/day intraperitoneally, 0 - 9 days (daily)
[28] = 40 µg/mouse/day intraperitoneally, 0 - 9 days (daily)

Row | Compound | IC50 [2] | MIC [3] [µg/mL] | MIC [4] [µg/mL] | MIC [5] [µg/mL] | MIC [6] [µg/mL] | MIC [7] [µg/mL] | MIC [8] [µg/mL] | MIC [9] [µg/mL] | MIC [10] [µg/mL] | MIC [11] [µg/mL] | MIC [12] [µg/mL] | MIC [13] [µg/mL] | MIC [14] [µg/mL] | MIC [15] [µg/mL] | MIC [16] [µg/mL] | other results
1 | CC(=O)C1(O)Cc2c(O)c3c(c(O)c2C(OC2CC4N=CC(C)OC(CC(C)O)OC4C(C)O2)C1)C(=O)c1c(O)cccc1C3=O (single isomer, unassigned) [Barminomycin II] | ~ 0.00002 µg/mℓ |  |  |  |  |  |  |  |  |  |  |  |  |  |  | percentage life prolongation (T/C%) [1, 18]: >500%, >500%; percentage life prolongation (T/C%) [1, 19]: 120%; intoxication [1, 20]: tendency of intoxication; intoxication [1, 21]: tendency of intoxication; percentage life prolongation (T/C%) [1, 21]: 173%; intoxication [1, 22]: Intoxicated to death at 4 days, and 5 days; percentage life prolongation (T/C%) ([1]; 0.313 µg/mouse/day intraperitoneally, 0 - 10 days (daily)): 140%
2 | CC(=O)C1(O)Cc2c(O)c3c(c(O)c2C(OC2CC4NCC(C)OC(CC(C)O)OC4C(C)O2)C1)C(=O)c1c(O)cccc1C3=O (single isomer, unassigned) [Barminomycin IIr] | 0.002 µg/mL (≈ 0.00312 µM) |  |  |  |  |  |  |  |  |  |  |  |  |  |  | percentage life prolongation (T/C%) [1, 23]: 123%; percentage life prolongation (T/C%) [1, 24]: 129%; percentage life prolongation (T/C%) [1, 25]: 123%; percentage life prolongation (T/C%) [1, 26]: 86%; intoxication [1, 27]: Intoxication; percentage life prolongation (T/C%) [1, 27]: 43%; intoxication [1, 28]: Intoxication; percentage life prolongation (T/C%) [1, 28]: 37%
3 | CC(=O)C1(O)Cc2c(O)c3c(c(O)c2C(OC2CC4NCC(C)OC(CC(C)O)OC4C(C)O2)C1)C(=O)c1c(O)cccc1C3=O (single isomer, unassigned) [Barminomycin Ir] | 0.0015 µg/mL (≈ 0.00234 µM) | 0.39 (≈ 0.608 µM) | 1.56 (≈ 2.43 µM) | 6.25 (≈ 9.74 µM) | 1.56 (≈ 2.43 µM) | 0.78 (≈ 1.22 µM) | 0.78 (≈ 1.22 µM) | 3.12 (≈ 4.86 µM) | 0.78 (≈ 1.22 µM) | 6.25 (≈ 9.74 µM) | 50 (≈ 77.9 µM) | >50 | 12.5 (≈ 19.5 µM) | 6.25 (≈ 9.74 µM) | 0.2 (≈ 0.312 µM) | percentage life prolongation (T/C%) [1, 23]: 97%; percentage life prolongation (T/C%) [1, 24]: 129%; percentage life prolongation (T/C%) [1, 25]: 141%; intoxication [1, 26]: Tendency of intoxication; percentage life prolongation (T/C%) [1, 26]: 49%; intoxication [1, 27]: Intoxication; percentage life prolongation (T/C%) [1, 27]: 37%; intoxication [1, 28]: Intoxication; percentage life prolongation (T/C%) [1, 28]: 25%; MIC [17]: 0.2 µg/mL (≈ 0.312 µM)
4 | COc1cccc2c1C(=O)c1c(O)c3c(c(O)c1C2=O)C[C@@](O)(C(=O)CO)C[C@@H]3O[C@H]1C[C@H](N)[C@H](O)[C@H](C)O1 [Adriamycin, adriamycin, reference compound] |  |  |  |  |  |  |  |  |  |  |  |  |  |  |  | IC50 ([2]; Mus musculus, read-out: IC50): 0.013 µg/mL (≈ 0.0239 µM)
5 | CC(=O)C1(O)Cc2c(O)c3c(c(O)c2C(OC2CC4N=CC(C)OC(CC(C)O)OC4C(C)O2)C1)C(=O)c1c(O)cccc1C3=O (centres unmarked) [Barminomycin I] | ~ 0.00001 µg/mℓ | <0.1 | 0.2 (≈ 0.313 µM) | 0.39 (≈ 0.61 µM) | 0.2 (≈ 0.313 µM) | 0.2 (≈ 0.313 µM) | 0.2 (≈ 0.313 µM) | 0.78 (≈ 1.22 µM) | 0.2 (≈ 0.313 µM) | 0.78 (≈ 1.22 µM) | 3.12 (≈ 4.88 µM) | 3.12 (≈ 4.88 µM) | 1.56 (≈ 2.44 µM) | 0.78 (≈ 1.22 µM) | <0.1 | percentage life prolongation (T/C%) [1, 18]: 160%; percentage life prolongation (T/C%) [1, 19]: 187% and 120%; percentage life prolongation (T/C%) [1, 20]: 213% and 147%; intoxication [1, 21]: tendency of intoxication; percentage life prolongation (T/C%) [1, 21]: 147%; intoxication [1, 22]: Intoxicated to death at 4 days; percentage life prolongation (T/C%) [1, 22]: 120%; MIC [17]: <0.1 µg/mL
6 | CC(=O)[C@]1(O)Cc2c(O)c3c(c(O)c2[C@@H](O[C@H]2C[C@H](N)[C@H](O)[C@H](C)O2)C1)C(=O)c1c(O)cccc1C3=O [Carminomycin I, carminomycin I, reference compound] |  |  |  |  |  |  |  |  |  |  |  |  |  |  |  | IC50 ([2]; Mus musculus, read-out: IC50): 0.002 µg/mL (≈ 0.00389 µM)
7 | CC(=O)C1(O)Cc2c(O)c3c(c(O)c2C(OC2CC(N)C(OC(CC(C)O)OC(C)CO)C(C)O2)C1)C(=O)c1c(O)cccc1C3=O (centres unmarked) [Carminomycin II, carminomycin II, reference compound] | 0.010 µg/mL (≈ 0.0152 µM) |  |  |  |  |  |  |  |  |  |  |  |  |  |  | 
8 | carminomycin III [reference compound] | 0.006 µg/mL | 1.56 | 1.56 | 50 | 1.56 | 3.12 | 3.12 | 25 | 1.56 | 6.25 | >50 | >50 | >50 | >50 | 1.56 | 
